The values below come from patent publication US6046177A, “Sulfoalkyl ether cyclodextrin based controlled release solid pharmaceutical formulations” (Cydex, Inc., priority 1999, dated 2000).

For series [1] the following is noted: cited from earlier work; for dissolution of complex vs. physical mixture: β-cyclodextrin complex vs. physical mixture.
For series [2] the following is noted: gels with methyl-β-cyclodextrin; cited from earlier work.
Series [3] is described as follows: In vitro release of dipyridamole from coated tablets (USP apparatus II). Type of series: physicochemical. As to the method: The sample volume was 20 μl and the UV detection wavelength was […] (Shimadzu 6A, Shimadzu, Japan). A mobile phase consisting of 70% methanol and 30% ammonium phosphate buffer (pH 5.0) was passed through the column at a flow rate of 1.5 ml/min. (SBE)7m -β-CD was detected by using a fluorimetric assay, 0.2 ml of a 1 mM solution of 2,6-toluidino-naphthalene-sulfonate to 0.8 ml of the sample. This solution was then excited at 325 nm and the emitted fluorescence detected at 455 nm using a Perkin 25 Elmer (Perkin-Elmer, CT) Fluorescence detector.
The ground physical mixture was then sieved through a 200 mesh (75 μm) screen. This process was repeated twice. This mixture was always stored in a desiccator when not used.
The dissolution die consists of a cylindrical stainless steel center-piece,a stainless steel platform, a stainless steel top cover, two Teflon sheets (top and bottom) and Teflon inserts. The cylindrical center-piece has a hole (radius=7.5 mm ) at the center in which the tablet is compressed. Both, the stainless steel top cover and top Teflon sheet have holes of same radius at the center. The center-piece was inverted and screwed onto the platform. […] The tablet core was compressed with a force of one ton for one minute using Carver press (Fred Carver Inc., NJ). The punch was carefully removed from the center-piece.
™ coatings were made by dissolving 5% (w/w) of […]™ R or S (Huls America, NJ), 5% of urea (SIGMA, MO) or polyethylene glycol (PEG 3350, SIGMA, MO) and 0.75% of triethyl Citrate (TEC, SIGMA, MO) in 89.25% ethanol. This was carried out until a clear solution was obtained. Cellulose acetate (CA-320S7 Eastman Chemical Co., TN) and hydroxypropyl methylcellulose phthalate (HPMCP, Eastman Chemical Co., TN) polymeric solutions were made by dissolving 5% of polymers and 1% of TEC in 94% of solvent containing equal amounts of methylene chloride and methanol. The ratio of CA to HPMCP was varied from 50:50 to 75:25 but the total amount of polymer was always maintained at 5%. The dissolution was carried out until clear solutions were obtained.
This coating solution was then air sprayed directly on the tablet surface under constant air flow (approx. 70° C.). The coated tablets were dried additionally for a period of 15 minutes under the same air flow. The tablets were additionally dried for a period of 12-16 hr. at room temperature. The thickness of the membrane was assumed to be the difference of thickness of the tablet after and before coating. The thickness measurements were carried out using a Screw-gauge micrometer.
The release studies for tablets coated with Eudragit L and CA: HPMCP were conducted by placing the dissolution die in a USP dissolution apparatus II (Vanderkamp 600, VanKel Industries Inc.) containing 450 ml of HCl (pH 1.5, 37° C. and 100 r.p.m.). […] 1.5 ml samples were collected periodically and equal amounts of dissolution medium was returned to the dissolution vessel. For the CA: HPMCP coated tablet, 100% release was determined by removing the membrane from the die and allowing the drug dissolution to be complete. The release experiments for tablets coated with Eudragit were conducted similarly in 450 ml of HCl for the first 2 hours, then placed in a phosphate buffer (pH 6.4) for additional 5 hr. and then placed in a phosphate buffer (pH 7.2). The release conditions and procedures were as described above.
0.5 ml of the sample was diluted by half in the mobile phase and the diluted samples were then analyzed using HPLC assay to determine drug concentrations as described in a later section.

The nature of the next series: pKa of dipyridamole. Type of series: physicochemical. Conditions: basic drug.
A short description of series [4]: In vitro release of dipyridamole from coated tablets (USP apparatus II). Type of series: physicochemical. The following applies: for release of DP without SAE-CD: core DP, citric acid, fructose-lactose.
The conditions of series [5]: in words; cited from earlier work.
The next series can be described thus: physchem. As to the method: (SBE)7 -β-CD (0-0.1 M) solutions were made in different buffer solutions at pH values ranging from 4.0 to 7.0 (citrate for 4 & 5; phosphate for 6 &7). […] The solutions were centrifuged for 10 min. at 2500 rpm. 20 μl of the supernatant was carefully sampled using a 100 μl gas-tight Hamilton Syringe (Hamilton, Nev.), diluted with mobile phase and analyzed by HPLC. The solubility data was then used to determine the binding constant using the method of Higuchi and Connors for AL-type phase behavior.

The conditions of series [6]: osmotic pump tablet with (SBE)7M -β-CD; cited from earlier work.
Series [7] in a line: Release of prednisolone and SBE7 β-CD from uncoated controlled release tablet cores. The class given is physicochemical. The following applies: for effect of HPMC viscosity 15,000 to 100,000 cps on release: 5% PD. As to the method: The above ingredients are used to make a 300 mg tablet core having a controlled release profile. The ingredients were blended by hand and individual tablets were prepared on a carver press under a pressure of 1 ton for 7 seconds. The tablets were prepared using a 5/16" standard cup concave tooling. The determination of the release profile by dissolution was conducted according to USP method 2 at 37°, 100 rpm with paddles in a 900 ml water bath. The amounts of prednisolone (PD) released was determined by HPLC, and the amount of SBE7 -βCD released was determined by TNS as described herein.

Values after ≈ are worked out from the molar mass of the structure shown.

As to `CC(=O)Nc1ccc(O)cc1` [acetaminophen], in series [1], the “dissolution of complex vs. physical mixture” value is on record as “significantly better, dissolution profile”.
As for `N=C(N)NCC1CCC(C(=O)Oc2ccccc2C(=O)OCc2ccccc2)CC1` (centres unmarked) [benexate], the “solubility of complex vs. physical mixture” value in series [1] (cyclodextrin complex vs. physical mixture or neat) is recorded as “significantly increased solubility”.
For `O=C1CN=C(c2ccccc2Cl)c2cc([N+](=O)[O-])ccc2N1` [clonazepam], in series [2], the “flux rate of clonazepam” value was “improves the flux rate”.
As a reminder, the pKa is the pH at which an ionisable group is half protonated. A lower pKa goes with a stronger acid or weaker base. The term solubility denotes the concentration that dissolves in the medium under given conditions. A lower solubility goes with little dissolved substance. Regarding `OCCN(CCO)c1nc(N2CCCCC2)c2nc(N(CCO)CCO)nc(N3CCCCC3)c2n1` [dipyridamole], the type of release entry in [3] (90 μm film, CA:HPMCP 1:1, FIG. 14) is “delayed release”; in [3] (105 μm film, CA:HPMCP 6:4, FIG. 14), “combined delayed and controlled release”; in series [3] (CA:HPMCP 1:1 film, FIG. 12), “combined delayed and controlled release”. Besides, the “effect of film thickness on release profile” value is listed as “did not appear to substantially affect the release profile” in series [3] (CA/HPMCP film 90 μm to 170 μm, FIG. 13) and “independent of film thickness but dependent upon solution pH” in [3] (EUDRAGIT-L/urea film, physical mixture core, FIG. 10). Moreover, the “pH at which DP is released” value is given as ~7.2 in series [3] (EUDRAGIT-S and urea film, FIG. 11); “about 6.8” in series [3] (comparison (EUDRAGIT-L and urea film)). In “pKa of dipyridamole”, this molecule showed a pKa of 6.28. The “release profile, SBE7 β-CD vs. DP” value in [4] (EUDRAGIT-L film 150 μm, pH raised from 1.5 to 6.8 after two hours, FIG. 9) is given as “substantially the same release profile”. The release delay entry in [4] (EUDRAGIT-L film, pH 1.5 to 6.8, FIG. 9) is reported as “two hour delay”. The “release of DP without SAE-CD” value in series [4] (CA:HPMCP (50:50) 120 μm film) was “no release of DP was obtained”; in series [4] (EUDRAGIT-L and urea (50:50) 120 μm film) it was “incomplete release of DP was observed”. The bioavailability result in [5] was “low and variable bioavailability”. In addition, the solubility at 24 h was found to be 16 mg/mL (≈ 31700 µM) in the series “physchem” (citrate buffer with sbe7 β-cd, pH 4); 1.99 mg/mL (≈ 3940 µM) in “physchem” (citrate buffer, pH 4, aqueous buffer); 0.504 mg/mL (≈ 999 µM) in the series “physchem” (phosphate buffer with sbe7 β-cd, pH 7); 0.00356 mg/mL (≈ 7.05 µM) in “physchem” (phosphate buffer, pH 7, aqueous buffer). Further, in “physchem” (water), the concentration in solution (solubility) came to 0.0036 mg/mL (≈ 7.13 µM).
Take `COc1ccc2c(c1)c(CC(=O)O)c(C)n2C(=O)c1ccc(Cl)cc1` [indomethacin]: in series [1], the “dissolution of complex vs. physical mixture” value was “significantly better, dissolution profile”.
On to `CCC1(c2ccccc2)C(=O)NC(=O)NC1=O` [phenobarbitone], for which the “controlled dissolution, preformed complex vs. physical mixture” value in series [1] (β-cyclodextrin) is listed as “preformed complex performs substantially better than the physical mixture”.
On to `CN1C(C(=O)Nc2ccccn2)=C(O)c2ccccc2S1(=O)=O` [piroxicam], for which the “dissolution of complex vs. physical mixture” value in series [1] was “significantly better, dissolution profile”.
For `C[C@]12C=CC(=O)C=C1CC[C@@H]1[C@@H]2[C@@H](O)C[C@@]2(C)[C@H]1CC[C@]2(O)C(=O)CO` [prednisolone], the release profile entry in series [6] is on record as “sustained release profile is provided by the osmotic pump tablet so long as the semipermeable membrane is present”. Moreover, the “effect of HPMC viscosity 15,000 to 100,000 cps on release” value in series [7] (35% SAE-CD, 50% HPMC, 10% lactose, FIG. 20) was “substantially independent of the viscosity of the HPMC”; in series [7] (70% SAE-CD, 25% HPMC, FIG. 19) it was “the rate of delivery of the PD and the overall amount of PD delivered increases”. Also, the “effect of decreasing SAE-CD (increasing lactose) on delivery” value in [7] (PD 5%, HPMC approximately 25%, FIG. 17) was “the rate of delivery of the PD and the overall amount of PD delivered decrease”. Besides, in series [7] (PD 5%, SAE-CD 35%, HPMC 25% to 50%, FIG. 18), the “effect of increasing release rate modifier ratio on release rate” value is “the release rate of the drug is decreased”. For the same molecule, the PD released result is “approximately 50 % by weight” in series [7] (control HPMC K100M, no cyclodextrin, eleven hours, FIG. 19); “approximately 30 % by weight” in series [7] (control HPMC K100M, no cyclodextrin, six hours, FIG. 19); “approximately 50 % by weight” in series [7] (no cyclodextrin, HPMC, after eleven hours, FIG. 16); “greater than 90%” in series [7] (with SAE-CD, HPMC, approximately six hours, FIG. 16); “substantially complete delivery of the drug” in series [7] (with SAE-CD, HPMC, eleven hours, FIG. 16). The drug released in series [7] (release rate modifier:drug approximately 5:1, 12 hours, FIG. 18) is listed as 75-90%; in series [7] (release rate modifier:drug approximately 5:1, about six hours, FIG. 18), 65-75%; in series [7] (release rate modifier:drug approximately 10:1, 12 hours, FIG. 18), 55-60%; in [7] (release rate modifier:drug approximately 10:1, about six hours, FIG. 18), 40-50%.
As to `CN1C(=O)C(O)N=C(c2ccccc2)c2cc(Cl)ccc21` (centres unmarked) [temazepam], the “dissolution of complex vs. physical mixture” value in [1] is recorded as “In only one of several examples did Martini et al. obtain a physical mixture formulation having a dissolution profile comparable to that of the preformed complex formulation”.
As to `Cc1cccc(N(C)C(=S)Oc2ccc3ccccc3c2)c1` [tolnaftate], the “dissolution of complex vs. physical mixture” value in series [1] is “improved dissolution over the physical mixture or free drug”.
On to `CC(=O)CC(c1ccccc1)c1c(O)c2ccccc2oc1=O` (centres unmarked) [warfarin], for which, in series [1], the “dissolution of complex vs. physical mixture” value is given as “significantly better, dissolution profile”.
